Test results as given in US20250319183A1, “COMPOSITIONS AND METHODS FOR THE TREATMENT OF CANCER” (Beth Israel Deaconess Medical Center, priority 2021, published 2025).
Blank lines part the entries; values can stand above or below the compound they belong to. Square brackets hold non-standard residues; d marks the D form. Peptide text beside a SMILES is read from it.

Tests used:
[1] = tested on: chronic lymphocytic leukemia (CLL) and AML cells; settings: cited from earlier work
[2] = tested on: multiple myeloma (MM) and AML cell lines; settings: single agent; cited from earlier work
THP-1 = test: TCRL antibody binding (PR1-HLA-A2 presentation) on THP-1, flow cytometry; format: cell-based; settings: four doses of 1 μM added twice daily for two days, then two days culture
Description: To determine the effect hypomethylation agents (HMAa) have on tumor antigen presentation, AML patient-derived tumor cells were treated for two days with four doses of 1 μM SGI-110, an HMA, added twice daily and then cultured for additional two days. TAP2 expression was assessed using immunohistochemical staining with and without treatment with SGI-110 (FIG. 3A). The HLA-A2 expressing AML cell line, THP-1, was treated for two days with four doses of 1 μM SGI-110 added twice daily and then cultured for an additional two days. The cells were then analyzed for binding capacity of a unique T cell receptor-like (TCRL) antibody. The TCRL antibody is a TCR mimic that recognizes the PR1-HLA-A2-MHC complex on the surface of leukemic cells where PR-1 is a known leukemic antigen. […] An HLA-A2 negative cell line U937 (histiocytic lymphoma) was used as a negative control.

AML cell = settings: in combination with decitabine; cited from earlier work

Structure (SMILES): CC1(C)CCC(c2ccc(Cl)cc2)=C(CN2CCN(c3ccc(C(=O)NS(=O)(=O)c4ccc(N[C@H](CCN5CCOCC5)CSc5ccccc5)c(S(=O)(=O)C(F)(F)F)c4)cc3)CC2)C1 [navitoclax, 4-[4-[[2-(4-chlorophenyl)-5,5-dimethylcyclohexen-1-yl]methyl]piperazin-1-yl]-N-[4-[[(2R)-4-morpholin-4-yl-1-phenylsulfanylbutan-2-yl]amino]-3-(trifluoromethylsulfonyl)phenyl]sulfonylbenzamide]
- anti-cancer activity [1]: anti-cancer activity

Structure (SMILES): CN(C)CC[C@H](CSc1ccccc1)Nc1ccc(S(=O)(=O)NC(=O)c2ccc(N3CCN(Cc4ccccc4-c4ccc(Cl)cc4)CC3)cc2)cc1[N+](=O)[O-] [ABT-737, 4-[4-[[2-(4-chlorophenyl)phenyl]methyl]piperazin-1-yl]-N-[4-[[(2R)-4-(dimethylamino)-1-phenylsulfanylbutan-2-yl]amino]-3-nitrophenyl]sulfonylbenzamide]
- activity against cell lines [2]: single agent activity

- tumor antigen presentation, binding of TCRL antibody (THP-1): increased binding of TCRL antibody
Structure (SMILES): Nc1ncn([C@H]2C[C@H](OP(=O)(O)OCC3O[C@@H](n4cnc5c(=O)[nH]c(N)nc54)CC3O)[C@@H](CO)O2)c(=O)n1 (stereo in doubt) [SGI-110, 2′-deoxy-5-aza-cytidylyl-(3′->5′)-2′-deoxy-guanosine]

Structure (SMILES): N=C(N)NCCC[C@@H](N)C(=O)N[C@H](CCCNC(=N)N)C(=O)N[C@H](CCCNC(=N)N)C(=O)N[C@H](CCCNC(=N)N)C(=O)N[C@H](CCCNC(=N)N)C(=O)N[C@H](CCCNC(=N)N)C(=O)N[C@H](CCCNC(=N)N)C(=O)N[C@H](CCCNC(=N)N)C(=O)N[C@H](CCCNC(=N)N)C(=O)N[C@H](CS)C(=O)N[C@H](CCC(N)=O)C(=O)N[C@H](CS)C(=O)N[C@H](CCCNC(=N)N)C(=O)N[C@H](CCCNC(=N)N)C(=O)N[C@H](CCCCN)C(=O)N[C@H](CC(N)=O)C(=O)O.O=C(O)C(F)(F)F [GO-203, D-arginyl-D-arginyl-D-arginyl-D-arginyl-D-arginyl-D-arginyl-D-arginyl-D-arginyl-D-arginyl-D-cysteinyl-D-glutaminyl-D-cysteinyl-D-arginyl-D-arginyl-D-lysyl-D-asparagine trifluoroacetic acid] (H-[dR][dR][dR][dR][dR][dR][dR][dR][dR][dC][dQ][dC][dR][dR][dK][dN]-OH)
- DNMT1 levels and AML cell survival (AML cell): effectively reduces DNMT1 levels and AML cell survival
